Source: PubChem BioAssay AID342 (DTP/NCI, 2004)
Values joined by “and” are separate entries in the source; they are usually repeats but may differ in a detail not shown here. Identical values can stand only once.

Test system: Swiss mice, Sarcoma 180 sc, mean tumor weight T/C
Experiment: NCI In Vivo Anticancer Drug Screen. Data for tumor model Sarcoma 180 (subcutaneous) in Swiss mice
Details: endpoint: mean tumor weight, higher = larger tumour
Procedure, shortened: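 Mice bearing transplanted tumors were treated with compound, and survival or tumor size was measured. Values are expressed as the treated-group measurement (T) divided by the vehicle-treated control measurement (C).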

[1] = dose: 15.0 mg/kg/injection, schedule: Q01DX007 (ip), vehicle: other
[2] = dose: 125.0 mg/kg/injection, schedule: Q01DX007 (ip), vehicle: saline
[3] = dose: 125.0 mg/kg/injection, schedule: Q01DX007 (ip), vehicle: carboxymethylcellulose (CMC)

For `CC1CN1C(=O)Nc1cccc2c(NC(=O)N3CC3C)cccc12` (configuration not stated), the T/C (dose: 9.5 mg/kg/injection, schedule: Q#A X014 (ip), vehicle: methylcellulose (MC)) was 66 % of control, the T/C (dose: 14.0 mg/kg/injection, schedule: Q#A X014 (ip), vehicle: methylcellulose (MC)) was 62 % of control and the T/C (dose: 20.5 mg/kg/injection, schedule: Q#A X014 (ip), vehicle: methylcellulose (MC)) was 31 % of control. The T/C (dose: 21.0 mg/kg/injection, schedule: Q#A X014 (ip), vehicle: methylcellulose (MC)) was 35 % of control, the T/C (dose: 31.5 mg/kg/injection, schedule: Q#A X014 (ip), vehicle: methylcellulose (MC)) was 23 % of control and the T/C (dose: 35.0 mg/kg/injection, schedule: Q01DX007 (ip), vehicle: carboxymethylcellulose (CMC)) was 50 % of control. The T/C (dose: 35.0 mg/kg/injection, schedule: Q01DX007 (ip), vehicle: saline) was 53 % of control, the T/C (dose: 47.0 mg/kg/injection, schedule: Q#A X014 (ip), vehicle: methylcellulose (MC)) was 7 % of control and the T/C (dose: 53.0 mg/kg/injection, schedule: Q01DX007 (ip), vehicle: saline) was 46 % of control. For the same compound, the T/C (dose: 80.0 mg/kg/injection, schedule: Q01DX007 (ip), vehicle: saline) was 35 % of control.
`c1ccc(N2N=C3N(c4ccccc4)C2N3c2ccccc2)cc1` was tested, and the T/C [1] was 114 % of control and the T/C (dose: 31.0 mg/kg/injection, schedule: Q01DX007 (ip), vehicle: other) was 72 % of control.
With `O=P(N1CCCC1)(N1CC1)N1CC1` the T/C (dose: 1.0 mg/kg/injection, schedule: Q#A X014 (ip), vehicle: saline) was 50 % of control and 54 % of control, the T/C (dose: 1.3 mg/kg/injection, schedule: Q#A X014 (ip), vehicle: carboxymethylcellulose (CMC)) was 76 % of control and the T/C (dose: 1.5 mg/kg/injection, schedule: Q#A X014 (ip), vehicle: saline) was 10 % of control and 22 % of control. For the same compound, the T/C (dose: 2.0 mg/kg/injection, schedule: Q#A X014 (ip), vehicle: carboxymethylcellulose (CMC)) was 66 % of control, the T/C (dose: 2.0 mg/kg/injection, schedule: Q#A X014 (ip), vehicle: saline) was 15 % of control and the T/C (dose: 3.0 mg/kg/injection, schedule: Q#A X014 (ip), vehicle: carboxymethylcellulose (CMC)) was 46 % of control. For the same compound, the T/C (dose: 8.0 mg/kg/injection, schedule: Q01DX007 (ip), vehicle: carboxymethylcellulose (CMC)) was 23 % of control and the T/C (dose: 12.0 mg/kg/injection, schedule: Q01DX007 (ip), vehicle: carboxymethylcellulose (CMC)) was 11 % of control.
For `CN1CCC23c4c5ccc(O)c4OC2C(O)C=CC3C1C5` (configuration not stated), the T/C (dose: 62.0 mg/kg/injection, schedule: Q01DX007 (ip), vehicle: saline) was 90 % of control, the T/C [2] was 99 % of control and the T/C (dose: 250.0 mg/kg/injection, schedule: Q01DX007 (ip), vehicle: saline) was 48 % of control.
In the case of `CN(N=Nc1n[nH]nc1C(N)=O)c1ccccc1`, the T/C (dose: 31.0 mg/kg/injection, schedule: Q01DX007 (ip), vehicle: carboxymethylcellulose (CMC)) is reported as 65 % of control, the T/C (dose: 62.0 mg/kg/injection, schedule: Q01DX007 (ip), vehicle: carboxymethylcellulose (CMC)) is reported as 73 % of control and the T/C [3] is reported as 70 % of control.
In the case of `O=C1CCCCC1C(=O)C(F)(F)F` (configuration not stated), the T/C (dose: 27.75 mg/kg/injection, schedule: Q#A X014 (ip), vehicle: methylcellulose (MC)) is reported as 64 % of control, the T/C (dose: 27.75 mg/kg/injection, schedule: Q#A X014 (ip), vehicle: saline) is reported as 64 % of control and the T/C (dose: 41.65 mg/kg/injection, schedule: Q#A X014 (ip), vehicle: methylcellulose (MC)) is reported as 79 % of control. For the same compound, the T/C (dose: 41.65 mg/kg/injection, schedule: Q#A X014 (ip), vehicle: saline) was 81 % of control, the T/C (dose: 55.0 mg/kg/injection, schedule: Q01DX007 (ip), vehicle: saline) was 61 % of control and the T/C (dose: 62.5 mg/kg/injection, schedule: Q#A X014 (ip), vehicle: methylcellulose (MC)) was 34 % of control. For the same compound, the T/C (dose: 62.5 mg/kg/injection, schedule: Q#A X014 (ip), vehicle: saline) was 28 % of control, the T/C (dose: 83.0 mg/kg/injection, schedule: Q01DX007 (ip), vehicle: saline) was 44 % of control and the T/C (dose: 93.75 mg/kg/injection, schedule: Q#A X014 (ip), vehicle: methylcellulose (MC)) was 35 % of control and 52 % of control. For the same compound, the T/C (dose: 93.75 mg/kg/injection, schedule: Q#A X014 (ip), vehicle: saline) was 37 % of control, the T/C (dose: 110.0 mg/kg/injection, schedule: Q02DX004 (ip), vehicle: saline) was 40 % of control and the T/C [2] was 62 % of control. The T/C (dose: 165.0 mg/kg/injection, schedule: Q03DX003 (ip), vehicle: saline) was 63 % of control, the T/C (dose: 166.0 mg/kg/injection, schedule: Q02DX004 (ip), vehicle: saline) was 97 % of control and the T/C (dose: 187.0 mg/kg/injection, schedule: Q01DX007 (ip), vehicle: saline) was 47 % of control. The T/C (dose: 250.0 mg/kg/injection, schedule: Q02DX004 (ip), vehicle: saline) was 82 % of control, the T/C (dose: 352.0 mg/kg/injection, schedule: Q03DX003 (ip), vehicle: carboxymethylcellulose (CMC)) was 83 % of control and the T/C (dose: 561.0 mg/kg/injection, schedule: Q03DX003 (ip), vehicle: saline) was 53 % of control.
For `COc1ccc2c3c([nH]c2c1)[C@H]1C[C@H]2[C@H](C[C@@H](O)[C@H](OC)[C@H]2CO)CN1CC3`, the T/C (dose: 0.5 mg/kg/injection, schedule: Q01DX007 (ip), vehicle: saline) was 120 % of control, the T/C (dose: 1.0 mg/kg/injection, schedule: Q01DX007 (ip), vehicle: saline) was 121 % of control and the T/C (dose: 2.0 mg/kg/injection, schedule: Q01DX007 (ip), vehicle: saline) was 95 % of control. For the same compound, the T/C (dose: 4.0 mg/kg/injection, schedule: Q01DX007 (ip), vehicle: saline) was 94 % of control, the T/C (dose: 8.0 mg/kg/injection, schedule: Q01DX007 (ip), vehicle: saline) was 102 % of control and the T/C (dose: 16.0 mg/kg/injection, schedule: Q01DX007 (ip), vehicle: saline) was 77 % of control. For the same compound, the T/C (dose: 32.0 mg/kg/injection, schedule: Q01DX007 (ip), vehicle: saline) was 102 % of control.
For `CNC(=O)NO`, the T/C (dose: 50.0 mg/kg/injection, schedule: Q01DX007 (ip), vehicle: water) was 100 % of control, the T/C (dose: 100.0 mg/kg/injection, schedule: Q01DX007 (ip), vehicle: water) was 109 % of control and the T/C (dose: 200.0 mg/kg/injection, schedule: Q01DX007 (ip), vehicle: water) was 95 % of control. For the same compound, the T/C (dose: 400.0 mg/kg/injection, schedule: Q01DX007 (ip), vehicle: water) was 60 % of control.
`CC(=O)OCC1OC(n2cnc3c(=S)nc(N)[nH]c32)C(OC(C)=O)C1OC(C)=O` (configuration not stated) was tested, and the T/C (dose: 3.0 mg/kg/injection, schedule: Q01DX007 (ip), vehicle: other) was 12 % of control, the T/C (dose: 3.0 mg/kg/injection, schedule: Q01DX007 (ip), vehicle: saline) was 64 % of control and the T/C (dose: 4.4 mg/kg/injection, schedule: Q01DX007 (ip), vehicle: other) was 6 % of control. For the same compound, the T/C (dose: 6.6 mg/kg/injection, schedule: Q01DX007 (ip), vehicle: carboxymethylcellulose (CMC)) was 43 % of control, the T/C (dose: 6.6 mg/kg/injection, schedule: Q01DX007 (ip), vehicle: other) was 18 % of control and 29 % of control and the T/C (dose: 10.0 mg/kg/injection, schedule: Q01DX007 (ip), vehicle: carboxymethylcellulose (CMC)) was 28 % of control. For the same compound, the T/C (dose: 10.0 mg/kg/injection, schedule: Q01DX007 (ip), vehicle: other) was 51 % of control, the T/C (dose: 15.0 mg/kg/injection, schedule: Q01DX007 (ip), vehicle: carboxymethylcellulose (CMC)) was 9 % of control and the T/C [1] was 6 % of control and 24 % of control. The T/C (dose: 22.0 mg/kg/injection, schedule: Q01DX007 (ip), vehicle: carboxymethylcellulose (CMC)) was 9 % of control, the T/C (dose: 22.0 mg/kg/injection, schedule: Q01DX007 (ip), vehicle: other) was 3 % of control and 10 % of control and the T/C (dose: 33.0 mg/kg/injection, schedule: Q01DX007 (ip), vehicle: other) was 11 % of control.
For `c1ccc2c(c1)-c1cccc3c1c-2cc1ccccc13`, the T/C (dose: 25.0 mg/kg/injection, schedule: Q01DX007 (ip), vehicle: other) was 53 % of control, the T/C (dose: 36.0 mg/kg/injection, schedule: Q01DX007 (ip), vehicle: other) was 36 % of control and 47 % of control and the T/C (dose: 55.0 mg/kg/injection, schedule: Q01DX007 (ip), vehicle: carboxymethylcellulose (CMC)) was 35 % of control. The T/C (dose: 55.0 mg/kg/injection, schedule: Q01DX007 (ip), vehicle: other) was 57 % of control, the T/C (dose: 82.5 mg/kg/injection, schedule: Q01DX007 (ip), vehicle: other) was 26 % of control and 42 % of control and the T/C (dose: 125.0 mg/kg/injection, schedule: Q01DX007 (ip), vehicle: other) was 14 % of control.
With `CN(CCO)/N=N/c1nc[nH]c1C(N)=O` the T/C [3] was 73 % of control and the T/C (dose: 250.0 mg/kg/injection, schedule: Q01DX007 (ip), vehicle: carboxymethylcellulose (CMC)) was 78 % of control.
`COc1ccc(-c2cc(=O)c3c(O)cc(OC)cc3o2)cc1` was tested, and the T/C (dose: 220.0 mg/kg/injection, schedule: Q01DX007 (ip), vehicle: saline) was 76 % of control, the T/C (dose: 330.0 mg/kg/injection, schedule: Q01DX007 (ip), vehicle: saline) was 66 % of control and the T/C (dose: 500.0 mg/kg/injection, schedule: Q01DX007 (ip), vehicle: saline) was 81 % of control.
With `CC(=O)NC(CCC(=O)C=[N+]=N)C(=O)O` (configuration not stated) the T/C (dose: 0.03 mg/kg/injection, schedule: Q01DX007 (ip), vehicle: water) was 62 % of control and 80 % of control, the T/C (dose: 0.05 mg/kg/injection, schedule: Q01DX007 (ip), vehicle: water) was 58 % of control and 63 % of control and the T/C (dose: 0.1 mg/kg/injection, schedule: Q01DX007 (ip), vehicle: water) was 13 % of control and 26 % of control. The T/C (dose: 0.2 mg/kg/injection, schedule: Q01DX007 (ip), vehicle: water) was 1 % of control.
